Entries after “also recorded” stand apart in the source; their conditions may differ. Ends that are not written are not given here.
How the values were obtained:
TGF-β1 [1] = biological target: T1, TGF-β1 (Mus musculus, UniProt P04202); assay: Model of acute liver damage induced by CCl4, type I collagen mRNA by real time PCR; type: in vivo, mice
T1 construct: from tissue; host or cells: liver of Balb/C mice (CCl4 model); lung of C57BL/6 mice (bleomycin model)
How it was run: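 Female Balb/C mice (25–30 g) received a single oral dose of CCl4 at 2 µl/g body weight in corn oil (1:1). Peptide was given at 50 µg in 500 µl of 1% saline in DMSO every 24 h. At 72 h, liver type I collagen mRNA was quantified by real-time PCR against corn-oil controls.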

TGF-β1 [2] = biological target: T1, TGF-β1; assay: Bleomycin-induced pulmonary fibrosis, preventive treatment started two days after bleomycin; type: in vivo, mice
Experimental: Female C57BL/6 mice (6-8 weeks of age) were obtained from Harlan SL (Barcelona, Spain) and maintained in accordance with the ethical committee of Universidad de Navarra (Spain) for the experimental use of animals. Lung injury was induced with 0.08 units/mouse of bleomycin sulfate (Sigma, Spain) diluted in 200 μl of phosphate buffered saline (PBS). Briefly, the suspension of bleomycin was instilled by pippeting into the nose of mice previously anesthetized with 2% isoflurane vapor. PBS was instilled in mice as a negative control for pulmonary fibrosis (PF), following the same procedures. Peptide treatment was started two days after bleomycin challenge and it was administered intraperitoneally in 500 μl of PBS on alternate days. Mice received high (75 μg/mouse) or low (25 μg/mouse) doses of P17, or the high dose (75 μg/mouse) of control peptide P301. […] To study the therapeutic effect of P17 in the development of fibrosis, it was administered daily ten days after bleomycin challenge, once fibrosis was established. Twenty six days after bleomycin instillation, mice were sacrificed and lung samples were fixed in order to evaluate histological damage.
Total RNA was purified from IMR-90 fibroblasts and whole lung samples using Ultraspec RNA (Biotecx; Houston, Tex.) according to the manufacturer's instructions. First, 1 μg of RNA was incubated with Dnase I (2 U/μl) (Gibco-BRL) for 30 min at 37° C. Then, samples were reverse-transcribed with the M-MLV Reverse transcriptase (Gibco-BRL) in the presence of RNaseOUT (Gibco-BRL) with ramdon hexamers and poly (dT) oligos according to the manufacturer's protocol. Expression of human Connective Tissue Growth Factor (CTGF) mRNA induced by TGF-β1 in IMR-90 fibroblasts was measured by real time RT-PCR using an ICycler and IQ SYBR Supermix (Bio-Rad, Italy). Actin was used as endogenous reference housekeeping gene. For in vivo analysis, expression of murine Fibronectin (FN), extra domain A of Fibronectin (EDA-FN), Collagen type I and Interferon gamma (IFN-γ) was measured in lungs, using Histone 3 as internal control. The amount of each transcript was expressed by the formula: 2^ΔCt (ΔCt=Ct(control gene)−Ct(gene)), wherein Ct is the threshold cycle number at which an increase in the signal associated with exponential growth of PCR products begins to be detected using Bio-Rad analysis software.
Lungs were fixed by inflation with 4% paraformaldehyde overnight and dehydrated in 70% ethanol. Tissue was embedded in paraffin wax, 3 μm thick sections were prepared and stained with Masson's trichrome to measure collagen deposition. Percentage of fibrosis in the lung was evaluated by light microscopy by three different qualified persons using a blinded system.
Dewaxed and rehydrated lung tissue sections were subjected to endogenous peroxidase inactivation with a blocking reagent (DakoCytomation, Denmark) for 10 min. They were then incubated for two hours with a 1/50 dilution in PBS of mouse anti-human α-SMA monoclonal antibody (DakoCytomation) that cross-reacts with mouse α-SMA. Next, sections were incubated for 1 hour with a peroxidase-labeled polyclonal rabbit anti-mouse immunoglobulin (DakoCytomation). Peroxidase activity was visualized using DAB+ Chromogen (DakoCytomation) as substrate and sections were counterstained with Harris hematoxylin. Expression of αSMA was evaluated by light microscopy and expressed as percentage of α-SMA positive area.
Lymphocyte infiltrate in the lungs was also determined by immunohistochemical analysis. In this case, lung sections were incubated with a mouse anti-human αCD3 monoclonal antibody that cross-reacts with mouse CD3 (NeoMarkers, CA) and then with an anti-mouse immunoglobulin coupled with peroxidase (DakoCytomation). CD3-positive cells were counted in a whole lobe (about 20 fields).

[3] = 75 μg/mouse, 14 days after bleomycin instillation, RT-PCR

T1 sequence (P04202 279-390 limits assumed): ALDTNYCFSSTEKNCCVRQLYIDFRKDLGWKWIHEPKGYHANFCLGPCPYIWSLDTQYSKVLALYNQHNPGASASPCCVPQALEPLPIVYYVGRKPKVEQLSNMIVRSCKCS

- lung fibrosis (Masson's Trichrome) (TGF-β1 [2]; 25 μg/mouse intraperitoneally on alternate days from day 2, day 26): No beneficial effect
- lung fibrosis (Masson's Trichrome) (TGF-β1 [2]; 75 μg/mouse intraperitoneally on alternate days from day 2, day 26, vs control peptide): significant decrease of fibrosis
- collagen type I mRNA in lungs (TGF-β1 [2]; [3]): significant reduction
- fibronectin mRNA in lungs (TGF-β1 [2]; [3]): significantly downregulated
- EDA-FN mRNA in lungs (TGF-β1 [2]; 75 μg/mouse, 14 days after bleomycin instillation, vs control peptide): lower expression levels
- IFN-γ mRNA expression in lungs (TGF-β1 [2]; 75 μg/mouse, RT-PCR): upregulated
- T lymphocytes (CD3+ cells) in lung sections (TGF-β1 [2]; 75 μg/mouse, vs bleomycin mice with or without P301): significant reduction
- IL-10 or IL-4 mRNA expression in lungs (TGF-β1 [2]; P17 vs P301 control peptide, RT-PCR, data not shown): did not show any significant difference
- areas of myofibroblasts (α-SMA expression) in lungs (TGF-β1 [2]; high dose 75 μg/mouse, immunohistochemistry): fewer areas of myofibroblasts
Sequence: KRIWFIPRSSWYERA [SEQ ID NO: 17, KRIWFIPRSSWYERA]
- % Inhibition of type I collagen mRNA induction (in vivo TGF-β1 biological activity) (TGF-β1 [1]; Balb/C mice, oral CCl4, 50 μg of peptide every 24 h, sacrifice after 72 hours): 93.09 ± 9.6%
- inhibition of the biological activity of TGF-β1 in vivo (in words) (TGF-β1 [1]; acute liver damage, type I collagen mRNA): most active peptide; also recorded: much greater extent; also recorded: inhibitory capacity; also recorded: capable of inhibiting the expression of collagen type I mRNA

— patent US8158589B2, “Peptides with the capacity to bind to transforming growth factor β1 (TGF-β1)” (Proyecto Biomedicine Cima, S.L., priority 2003, dated 2012)
